Assay results from PubChem BioAssay AID330 (DTP/NCI, 2004).
“And” between values parts separate entries of the source, which are not always exact repeats. Equal values may be shown once. Inconclusive results and toxic doses are left out.

Tested on: P388 leukemia ip, CD2F1 mice, survival T/C
Assay: NCI In Vivo Anticancer Drug Screen. Data for tumor model P388 Leukemia (intraperitoneal) in CD2F1 (CDF1) mice
Settings: endpoint: median survival time, higher = longer survival
Method in brief: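 Mice carrying the transplanted tumor received test compound or vehicle. Survival was recorded in each group, and the value is the treated-group measurement divided by that of the vehicle-treated control group.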

[1] = dose: 25.0 mg/kg/injection, schedule: Q01DX005 (ip), vehicle: Klucel (hydroxypropylcellulose) (HPC)
[2] = dose: 50.0 mg/kg/injection, schedule: Q01DX005 (ip), vehicle: Klucel (hydroxypropylcellulose) (HPC)
[3] = dose: 100.0 mg/kg/injection, schedule: Q01DX005 (ip), vehicle: Klucel (hydroxypropylcellulose) (HPC)
[4] = dose: 100.0 mg/kg/injection, schedule: Q04DX003 (ip), vehicle: saline with Tween-80
[5] = dose: 200.0 mg/kg/injection, schedule: Q04DX003 (ip), vehicle: saline with Tween-80
[6] = dose: 400.0 mg/kg/injection, schedule: Q04DX003 (ip), vehicle: saline with Tween-80
[7] = dose: 12.5 mg/kg/injection, schedule: Q01DX009 (ip), vehicle: saline
[8] = dose: 25.0 mg/kg/injection, schedule: Q01DX009 (ip), vehicle: saline
[9] = dose: 50.0 mg/kg/injection, schedule: Q01DX009 (ip), vehicle: saline
[10] = dose: 100.0 mg/kg/injection, schedule: Q01DX009 (ip), vehicle: saline
[11] = dose: 3.12 mg/kg/injection, schedule: Q01DX009 (ip), vehicle: saline

Cc1ccc(/[N+]([O-])=N/N2C(=O)c3ccccc3C2=O)cc1 was tested, and the T/C [1] was 101 % of control, the T/C [2] was 106 % of control and the T/C [3] was 108 % of control.
With COc1ccc(C[C@H]2c3c(cc4c(c3OC)OCO4)CCN2C)c(CO)c1OC the T/C (dose: 9.38 mg/kg/injection, schedule: Q01DX005 (ip), vehicle: Klucel (hydroxypropylcellulose) (HPC)) was 100 % of control, the T/C (dose: 18.75 mg/kg/injection, schedule: Q01DX005 (ip), vehicle: Klucel (hydroxypropylcellulose) (HPC)) was 98 % of control and the T/C (dose: 37.5 mg/kg/injection, schedule: Q01DX005 (ip), vehicle: Klucel (hydroxypropylcellulose) (HPC)) was 94 % of control. For the same compound, the T/C (dose: 75.0 mg/kg/injection, schedule: Q01DX005 (ip), vehicle: Klucel (hydroxypropylcellulose) (HPC)) was 99 % of control.
NC(=O)c1nn(C2OC(CO)C(O)C2O)c2ncnc(N)c12 (stereo not given) was tested, and the T/C (dose: 3.0 mg/kg/injection, schedule: Q01DX009 (ip), vehicle: Klucel (hydroxypropylcellulose) (HPC)) was 152 % of control and the T/C (dose: 6.0 mg/kg/injection, schedule: Q01DX009 (ip), vehicle: Klucel (hydroxypropylcellulose) (HPC)) was 190 % of control.
In the case of CC1=C(C#N)C(=O)N(C)C(=O)C1(Cl)Cl, the T/C (dose: 100.0 mg/kg/injection, schedule: Q04DX002 (ip), vehicle: Klucel (hydroxypropylcellulose) (HPC)) is reported as 98 % of control and the T/C (dose: 200.0 mg/kg/injection, schedule: Q04DX002 (ip), vehicle: Klucel (hydroxypropylcellulose) (HPC)) is reported as 98 % of control.
For NC(=O)c1ccc(=O)n(C2OC(CO)C(O)C2O)c1 (stereo not given), the T/C (dose: 50.0 mg/kg/injection, schedule: Q04DX003 (ip), vehicle: saline with Tween-80) was 102 % of control, the T/C [4] was 102 % of control and the T/C [5] was 100 % of control. The T/C [6] was 102 % of control.
For Cc1cc2nc(NN=O)sc2cc1C, the T/C (dose: 3.12 mg/kg/injection, schedule: Q01DX009 (ip), vehicle: water) was 109 % of control, the T/C (dose: 6.25 mg/kg/injection, schedule: Q01DX009 (ip), vehicle: water) was 97 % of control and the T/C (dose: 12.5 mg/kg/injection, schedule: Q01DX009 (ip), vehicle: water) was 106 % of control. The T/C (dose: 25.0 mg/kg/injection, schedule: Q01DX009 (ip), vehicle: water) was 104 % of control (2×) and 97 % of control, the T/C (dose: 50.0 mg/kg/injection, schedule: Q01DX009 (ip), vehicle: water) was 102 % of control and 103 % of control and 108 % of control and the T/C (dose: 100.0 mg/kg/injection, schedule: Q01DX009 (ip), vehicle: water) was 123 % of control.
For CC(C)CC(NC1=CC(=O)N(c2ccccc2)C1c1ccccc1)c1nc2ccccc2[nH]1 (stereo not given), the T/C [2] was 99 % of control, the T/C [3] was 95 % of control and the T/C (dose: 200.0 mg/kg/injection, schedule: Q01DX005 (ip), vehicle: Klucel (hydroxypropylcellulose) (HPC)) was 95 % of control.
CCN(CC)CCSc1ccccc1 was tested, and the T/C [2] was 100 % of control and the T/C [3] was 102 % of control.
CC(=O)Nc1ccc(S(=O)(=O)NC(C)=O)cc1 was tested, and the T/C [7] was 100 % of control, the T/C [8] was 98 % of control and the T/C [9] was 108 % of control. The T/C [10] was 100 % of control.
For O=C(/C(=C/c1ccccc1)c1ccc(Cl)cc1)c1ccccc1, the T/C [4] was 116 % of control, the T/C [5] was 100 % of control and the T/C [6] was 103 % of control.
COc1cccc2c1C(=O)c1c(O)c3c(c(O)c1C2=O)C[C@@](O)(C(C)=O)C[C@@H]3OC1CC(N2CCOCC2C#N)C(O)C(C)O1 (stereo not given in full) was tested, and the T/C (dose: 0.2 mg/kg/injection, schedule: Q04DX003 (ip), vehicle: water) was 191 % of control, the T/C (dose: 0.39 mg/kg/injection, schedule: Q04DX003 (ip), vehicle: distilled water + Tween-80) was 187 % of control and the T/C (dose: 0.39 mg/kg/injection, schedule: Q04DX003 (ip), vehicle: water) was 207 % of control. For the same compound, the T/C (dose: 0.78 mg/kg/injection, schedule: Q04DX003 (ip), vehicle: water) was 95 % of control.
With CS(=O)(=O)OCCN1C(=O)CNC1=O the T/C (dose: 12.5 mg/kg/injection, schedule: Q04DX003 (ip), vehicle: saline) was 99 % of control, the T/C (dose: 25.0 mg/kg/injection, schedule: Q04DX003 (ip), vehicle: saline) was 106 % of control and the T/C (dose: 50.0 mg/kg/injection, schedule: Q04DX003 (ip), vehicle: saline) was 99 % of control. The T/C (dose: 100.0 mg/kg/injection, schedule: Q04DX003 (ip), vehicle: saline) was 101 % of control, the T/C (dose: 200.0 mg/kg/injection, schedule: Q04DX003 (ip), vehicle: saline) was 101 % of control and the T/C (dose: 400.0 mg/kg/injection, schedule: Q04DX003 (ip), vehicle: saline) was 99 % of control.
For COC(=O)C(CSC1CCCCC1=O)NC(C)=O (stereo not given), the T/C [1] was 93 % of control, the T/C [2] was 95 % of control and the T/C [3] was 101 % of control.
For COc1cccc(OC)c1N, the T/C (dose: 50.0 mg/kg/injection, schedule: Q01DX009 (ip), vehicle: saline with Tween-80) was 108 % of control, the T/C (dose: 100.0 mg/kg/injection, schedule: Q01DX009 (ip), vehicle: saline with Tween-80) was 108 % of control and the T/C (dose: 200.0 mg/kg/injection, schedule: Q01DX009 (ip), vehicle: saline with Tween-80) was 92 % of control. For the same compound, the T/C (dose: 400.0 mg/kg/injection, schedule: Q01DX009 (ip), vehicle: saline with Tween-80) was 90 % of control.
In the case of NC1=NCN(C2OC(CO)C(O)C2O)C(=O)N1 (stereo not given), the T/C [11] is reported as 110 % of control, the T/C (dose: 3.13 mg/kg/injection, schedule: Q01DX009 (ip), vehicle: saline) is reported as 120 % of control and the T/C (dose: 25.0 mg/kg/injection, schedule: Q01DX005 (iv), vehicle: saline) is reported as 118 % of control. For the same compound, the T/C [8] was 150 % of control and 159 % of control, the T/C (dose: 50.0 mg/kg/injection, schedule: Q01DX005 (ip), vehicle: saline) was 150 % of control and the T/C (dose: 120.0 mg/kg/injection, schedule: Q01DX009 (ip), vehicle: saline) was 190 % of control. For the same compound, the T/C (dose: 140.0 mg/kg/injection, schedule: Q01DX009 (ip), vehicle: saline) was 199 % of control and 203 % of control, the T/C (dose: 160.0 mg/kg/injection, schedule: Q01DX009 (ip), vehicle: saline) was 200 % of control and the T/C (dose: 200.0 mg/kg/injection, schedule: Q01DX005 (ip), vehicle: saline) was 184 % of control. For the same compound, the T/C (dose: 400.0 mg/kg/injection, schedule: Q01DX009 (ip), vehicle: saline) was 88 % of control and 90 % of control.
In the case of O=c1c2cc3c(=O)n(CC#CCN4CCCCC4)c(=O)c3cc2c(=O)n1CC#CCN1CCCCC1, the T/C (dose: 50.0 mg/kg/injection, schedule: Q01DX005 (ip), vehicle: saline with Tween-80) is reported as 100 % of control, the T/C (dose: 100.0 mg/kg/injection, schedule: Q01DX005 (ip), vehicle: saline with Tween-80) is reported as 100 % of control and the T/C (dose: 200.0 mg/kg/injection, schedule: Q01DX005 (ip), vehicle: saline with Tween-80) is reported as 98 % of control.
In the case of Nc1nc(-c2ccccc2)nc(-c2ccccc2)n1, the T/C (dose: 2.5 mg/kg/injection, schedule: Q01DX009 (ip), vehicle: saline) is reported as 104 % of control, the T/C [11] is reported as 95 % of control and the T/C (dose: 3.12 mg/kg/injection, schedule: Q01DX009 (ip), vehicle: suspension in saline) is reported as 100 % of control and 97 % of control. For the same compound, the T/C (dose: 5.0 mg/kg/injection, schedule: Q01DX009 (ip), vehicle: saline) was 104 % of control, the T/C (dose: 6.25 mg/kg/injection, schedule: Q01DX009 (ip), vehicle: saline) was 92 % of control and the T/C (dose: 10.0 mg/kg/injection, schedule: Q01DX009 (ip), vehicle: saline) was 100 % of control. The T/C [7] was 89 % of control, the T/C (dose: 12.5 mg/kg/injection, schedule: Q01DX009 (ip), vehicle: suspension in saline) was 93 % of control and 98 % of control and the T/C (dose: 20.0 mg/kg/injection, schedule: Q01DX009 (ip), vehicle: saline) was 100 % of control. The T/C (dose: 25.0 mg/kg/injection, schedule: Q01DX009 (ip), vehicle: suspension in saline) was 90 % of control and 98 % of control.
For O=P(O)(O)SP(=O)(O)O.[Mn], the T/C (dose: 100.0 mg/kg/injection, schedule: Q04DX003 (ip), vehicle: Klucel (hydroxypropylcellulose) (HPC)) was 105 % of control, the T/C (dose: 200.0 mg/kg/injection, schedule: Q04DX003 (ip), vehicle: Klucel (hydroxypropylcellulose) (HPC)) was 110 % of control and the T/C (dose: 400.0 mg/kg/injection, schedule: Q04DX003 (ip), vehicle: Klucel (hydroxypropylcellulose) (HPC)) was 119 % of control.
O=C1CSC(=S)N1c1ccc(Cl)c([N+](=O)[O-])c1 was tested, and the T/C [8] was 101 % of control, the T/C [9] was 104 % of control and 111 % of control and 92 % of control and the T/C [10] was 99 % of control and 100 % of control. The T/C (dose: 100.0 mg/kg/injection, schedule: Q01DX009 (ip), vehicle: suspension in saline) was 117 % of control, the T/C (dose: 200.0 mg/kg/injection, schedule: Q01DX009 (ip), vehicle: saline) was 102 % of control and 108 % of control and the T/C (dose: 200.0 mg/kg/injection, schedule: Q01DX009 (ip), vehicle: suspension in saline) was 86 % of control.
With CCCC1(N2CCCC2)C(=O)NC(=O)N(CC)C1=O (stereo not given) the T/C (dose: 60.0 mg/kg/injection, schedule: Q01DX005 (ip), vehicle: Klucel (hydroxypropylcellulose) (HPC)) was 108 % of control, the T/C (dose: 120.0 mg/kg/injection, schedule: Q01DX005 (ip), vehicle: Klucel (hydroxypropylcellulose) (HPC)) was 93 % of control and the T/C (dose: 240.0 mg/kg/injection, schedule: Q01DX005 (ip), vehicle: Klucel (hydroxypropylcellulose) (HPC)) was 101 % of control.
